Laboratory results taken from patent publication US20260242350A1, “POLYCYCLIC THYROID HORMONE BETA RECEPTOR AGONIST AND USE THEREOF” (CASCADE PHARMACEUTICALS, INC., priority 2023, published 2026).

How the values were obtained:
[1] = molecular target: T1, THRα LBD (His-GST-dLBT-THRα LBD) (Homo sapiens, UniProt P10827); experiment: THR-FRET (time-resolved fluorescence resonance energy transfer) agonist activity assay, THRα; assay type: biochemical; conditions: 24 h at room temperature
T1 construct: made in house; host or cells: E. coli BL21 (DE3)
T1 sequence (P10827 163-407 isoform P10827-2): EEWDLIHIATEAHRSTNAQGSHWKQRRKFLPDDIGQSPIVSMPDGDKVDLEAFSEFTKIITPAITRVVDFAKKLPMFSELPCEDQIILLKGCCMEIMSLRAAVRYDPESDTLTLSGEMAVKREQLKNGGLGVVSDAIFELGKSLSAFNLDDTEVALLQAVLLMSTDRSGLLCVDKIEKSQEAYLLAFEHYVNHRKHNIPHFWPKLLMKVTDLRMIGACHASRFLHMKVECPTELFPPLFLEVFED
Excerpt: (§1) Experimental Example 1: Detection of Agonist Activities of Compounds Against THRα/β Based on Time-Resolved Fluorescence Resonance Energy Transfer (THR-FRET)
(§2) 1. Construction of THRα/β Overexpression Vectors
(§3) By visiting NCBI, the THRα/β LBD domain sequences were found. The pET21-His-GST-dLBT-THRα LBD and pET21-His-GST-dLBT-THRβLBD overexpression vectors were constructed by the fusion method, and sequenced to confirm the accuracy of the sequences.
(§4) 2. Prokaryotic Expression of Recombinant Proteins in E. coli
(§5) The THRα LBD and THRβLBD overexpression vectors confirmed by sequencing were transfected into E. coli cells BL21 (DE3), and spread on an ampicillin-resistant agar plate. Monoclones were picked out and amplified in an LB medium, and transferred into 1 L LB at a ratio of 1:100 for large-scale culture. When the OD value was at 0.8 to 1.2, 0.5 mM isopropyl-beta-D-thiogalactopyranoside (IPTG) was added, and induced overnight at 18° C. The bacteria were harvested, disrupted, and purified via the GST column and the molecular sieve to obtain two proteins His-GST-dLBT-THRα LBD and His-GST-dLBT-THRβLBD.
(§6) 3. Preparation of Compounds and Formulation of Reaction System
(§7) The proteins were taken out from a refrigerator at −80° C. The protein s with the GST-tagged THRα/p LBD domain and the Eu-labelled GST antibodies were thawed slowly on ice, and an assay buffer containing a final concentration of 5 mM dithiothreitol (DTT) was formulated.
(§8) 3.1 Preparation of Compounds
(§9) The starting concentration of the compound was 10 μM (in DMSO). The compound (100 μM in DMSO) was subjected to 3-fold isogradient dilution with DMSO to obtain a total of 11 isogradient concentrations. Subsequently, the above compounds at the isogradient concentration were further subjected to 50-fold dilution with an assay buffer containing 5 mM DTT.
(§10) 3.2 Formulation of THR-FRET Reaction System
(§11) The final concentrations of all components were calculated based on a system with a final volume of 20 µL per well. To […] of assay buffer containing 5 mM DTT, the GST-tagged THRα/β proteins, the SRC2 ([…]) polypeptide, XL665 (Cisobio, #610SAXLB), and the Eu-labeled GST antibody were added, and the final concentrations were 2 nM, 200 nM, 0.05 nM, and 7.6 nM respectively to formulate 18 μL of reaction mixture of the proteins, polypeptide, and antibody per well.
(§12) 18 μL of reaction mixture and 2 μL of diluted compound were added into an optiplate-384-well plate, and reacted at room temperature for 24 h.
(§13) The plate was read using an MD i3x multi-mode microplate reader with the excitation and emission wavelengths of 340 nm and 665 nm, respectively. The intensity of light at a wavelength of 616 nm generated by europium excited by 340 nm wavelength light from the MD i3x multi-mode microplate reader was used as the background. According to the different activation degrees of different compounds against THRα and THRβ, the intensity of the emission light at a wavelength of 665 nm generated by exciting XL665 with the exciting light at a wavelength of 616 nm was varied. The intensity ratio between these two light wavelengths (665 nm, 616 nm) was used as the activation activity of the compound against THRα or THRβ, and was normalized against the ratio in the vehicle DMSO group. The dose-response curve was fitted with four parameters using the GraphPad Prism 6.0 software, and the EC50 value was calculated.

[2] = molecular target: T2, THRβ LBD (His-GST-dLBT-THRβLBD) (Homo sapiens, UniProt P10828); experiment: THR-FRET (time-resolved fluorescence resonance energy transfer) agonist activity assay, THRβ; assay type: biochemical; conditions: for EC50: 24 h at room temperature; for Selectivity (THRα/THRβ): ratio of EC50 THRα/THRβ
T2 construct: made in house; host or cells: E. coli BL21 (DE3)
T2 sequence (P10828 217-461 limits assumed): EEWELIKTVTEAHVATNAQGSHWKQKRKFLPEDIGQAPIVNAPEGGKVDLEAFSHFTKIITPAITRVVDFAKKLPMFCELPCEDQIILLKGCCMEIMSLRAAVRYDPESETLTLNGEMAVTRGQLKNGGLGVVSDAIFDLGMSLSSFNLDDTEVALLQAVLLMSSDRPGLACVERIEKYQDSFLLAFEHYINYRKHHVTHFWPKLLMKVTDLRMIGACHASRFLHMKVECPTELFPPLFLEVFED
Excerpt: as §1, §2, §3, §4, §5, §6, §7, §8, §9, §10, §11, §12, §13

THRβ (pGAL4-THRβ-LBD) = molecular target: T3, THRβ (pGAL4-THRβ-LBD) (Homo sapiens, UniProt P10828); experiment: Reporter gene (Dual-Glo luciferase) agonist activity assay in HEK293T cells, THRβ; assay type: cell-based; conditions: ratio of EC50 THRα/THRβ
T3 construct: expressed in transfected cells; host or cells: HEK293T
T3 sequence (P10828 217-461): T2 sequence (P10828 217-461 limits assumed)
Excerpt: Experimental Example 2: Detection of Agonist Activities of Compounds Against THRα and THRβ Based on Reporter Gene Activity Assay Method
1.1 Construction and Preparation of Plasmids pGAL4-THR-LBD and pG5-Luc
The pGAL4-THRα-LBD and pGAL4-THRβ-LBD plasmids used in the reporter gene assay system were constructed by a conventional molecular cloning method comprising the following main steps: the cDNA sequences of THRα (NM_003250) and THRβ(NM_000461) corresponding to the amino acid sequences of THRα (163-407AA) and THRβ(217-461AA) were inserted into the BamHI and NotI enzyme digestion sites of the pGAL4 vector by the PCR technique respectively to obtain the pGAL4-THRα-LBD and pGAL4-THRβ-LBD plasmids; the pG5-Luc (#E249A) and pRL-TK (#E2241) plasmids were purchased from Promega; the plasmids were transfected into the E. coli DH5a by the CaCl2 method, and after further culture and amplification, the plasmids were purified by Plasmid Extraction Kits (TIANGEN, #D107) to obtain the corresponding plasmid DNAs.
1.2 Co-Transfection of Plasmids into HEK293T Cells and Treatment with Compounds
The HEK293T cells were inoculated into a 96-well plate at a density of 1×10^4/well the day before plasmid transfection. Cell transfection was conducted according to the instructions of the transfection reagent FuGENE® HD (Promega, #E2311). The main steps were as follows: taking one well as an example here, the plasmids pGAL4-THRα-LBD or pGAL4-THRβ-LBD, pG5-Luc, and pRL-TK were added in the proportions of 20 ng, 50 ng, and 5 ng to 10 μL of Opti-MEM™ I medium (Gibco, #11058021) and mixed well; subsequently, 0.25 μL of FuGENE® HD was added, mixed well, and then left at room temperature for 5 min; afterwards, […] was added to the cell wells containing 100 μL of culture medium. After cell co-transfection for 6 h, the compound was diluted in a 3-fold gradient with dimethyl sulfoxide at the highest concentration of 1 μM. The compound was added to the cell culture medium at a total of 10 concentrations for treatment for 24 h. There were a total of two duplicate wells for each concentration. Triiodothyronine (T3) was used as the positive control.
1.3 Dual-Glo Luciferase Assay
After the cells were treated with the compound for 24 h, the cells were assayed according to the instructions of Dual-Glo® Luciferase Assay System (Promega, #E2940). The main steps were as follows: 50 μL of culture medium was aspirated from each well and discarded, and then 50 μL of Dual-Glo® Luciferase reagent was added and oscillated at room temperature for 10 min; 80 μL of lysis reaction solution was measured into a white opaque optiPlate-96-well plate, and the luminescence signal value (Firefly-Luc) of the Firefly luciferase was detected using an MD i3x multi-mode microplate reader; 40 μL of Dual-Glo® Stop & Glo® reagent was then added, and oscillated at room temperature for 10 min; the luminescence signal value (Renilla-Luc) of the Renilla luciferase was then detected using an MD i3x multi-mode microplate reader. The Firefly-Luc/Renilla-Luc ratio was used as the activation activity of the compound against THR, and was normalized against the ratio in the vehicle DMSO group; the dose-response curve was fitted with four parameters using the GraphPad Prism6.0 software, and the EC50 value was calculated.

For `O=c1[nH]c(=O)n(-c2cc(Cl)c(Cn3ccc(=O)c4ccccc43)c(Cl)c2)nc1C(F)F` [Compound 28], the EC50 [1] was 100 to 1000 nM, the EC50 [2] was less than 50 nM and the “Selectivity (THRα/THRβ)” value [2] was “†† (10 > THRα/β > 1)”. For the same compound, the “Selectivity (THRα/THRβ)” value (THRβ (pGAL4-THRβ-LBD)) was “†††† (THRα/β > 20)”.
For `Cc1nn(-c2cc(Cl)c(Cn3ccc(=O)c4c(C)cccc43)c(Br)c2)c(=O)[nH]c1=O` [Compound 46], the EC50 [1] was 50 to 100 nM, the EC50 [2] was less than 50 nM and the “Selectivity (THRα/THRβ)” value [2] was “†† (10 > THRα/β > 1)”. The “Selectivity (THRα/THRβ)” value (THRβ (pGAL4-THRβ-LBD)) was “† (5 ≥ THRα/β)”.
For `Cc1cccc2c1c(=O)ccn2Cc1c(Br)cc(-n2nc(C(F)F)c(=O)[nH]c2=O)cc1Br` [Compound 49], the EC50 [1] was 50 to 100 nM, the EC50 [2] was 50 to 100 nM and the “Selectivity (THRα/THRβ)” value [2] was “†† (10 > THRα/β > 1)”. For the same compound, the “Selectivity (THRα/THRβ)” value (THRβ (pGAL4-THRβ-LBD)) was “† (5 ≥ THRα/β)”.
In the case of `O=c1[nH]c(=O)n(-c2cc(Cl)c(Cn3ccc(=O)c4ccccc43)c(Cl)c2)nc1CF` [Compound 37], the EC50 [1] is reported as 100 to 1000 nM, the EC50 [2] is reported as 50 to 100 nM and the “Selectivity (THRα/THRβ)” value [2] is reported as “†† (10 > THRα/β > 1)”. The “Selectivity (THRα/THRβ)” value (THRβ (pGAL4-THRβ-LBD)) was “†††† (THRα/β > 20)”.
With `O=c1[nH]c(=O)n(-c2cc(Br)c(Cn3ccc(=O)c4ccccc43)c(Br)c2)nc1C(F)F` [Compound 29] the EC50 [1] was 50 to 100 nM, the EC50 [2] was less than 50 nM and the “Selectivity (THRα/THRβ)” value [2] was “†† (10 > THRα/β > 1)”. For the same compound, the “Selectivity (THRα/THRβ)” value (THRβ (pGAL4-THRβ-LBD)) was “†††† (THRα/β > 20)”.
`C=Cc1nn(-c2cc(Cl)c(Cn3ccc(=O)c4ccccc43)c(Cl)c2)c(=O)[nH]c1=O` [Compound 35] was tested, and the EC50 [1] was 1000 to 10000 nM, the EC50 [2] was 100 to 1000 nM and the “Selectivity (THRα/THRβ)” value [2] was “†† (10 > THRα/β > 1)”. The “Selectivity (THRα/THRβ)” value (THRβ (pGAL4-THRβ-LBD)) was “† (5 ≥ THRα/β)”.
With `Cc1nn(-c2cc(Br)c(Cn3ccc(=O)c4c(C)cccc43)c(Br)c2)c(=O)[nH]c1=O` [Compound 45] the EC50 [1] was 100 to 1000 nM, the EC50 [2] was less than 50 nM and the “Selectivity (THRα/THRβ)” value [2] was “†† (10 > THRα/β > 1)”. The “Selectivity (THRα/THRβ)” value (THRβ (pGAL4-THRβ-LBD)) was “† (5 ≥ THRα/β)”.
`O=c1cnn(-c2cc(Cl)c(Cn3ccc(=O)c4ccccc43)c(Cl)c2)c(=O)[nH]1` [Compound 1] was tested, and the EC50 [1] was 1000 to 10000 nM, the EC50 [2] was 100 to 1000 nM and the “Selectivity (THRα/THRβ)” value [2] was “†† (10 > THRα/β > 1)”. For the same compound, the “Selectivity (THRα/THRβ)” value (THRβ (pGAL4-THRβ-LBD)) was “† (5 ≥ THRα/β)”.
For `Cc1nn(-c2cc(Cl)c(Cn3ccc(=O)c4ccccc43)c(Cl)c2)c(=O)[nH]c1=O` [Compound 41], the EC50 [1] was 1000 to 10000 nM, the EC50 [2] was 100 to 1000 nM and the “Selectivity (THRα/THRβ)” value [2] was “†† (10 > THRα/β > 1)”. For the same compound, the “Selectivity (THRα/THRβ)” value (THRβ (pGAL4-THRβ-LBD)) was “† (5 ≥ THRα/β)”.
